# From publication PMC10892818, “An Antiherpesviral Host-Directed Strategy Based on CDK7 Covalently Binding Drugs: Target-Selective, Picomolar-Dose, Cross-Virus Reactivity” (Pharmaceutics, 2024)
# What was measured:
# [1] = tested on: HCMV UL97-M460I; design: method as in PMID 31940472; key: R-high, high-level drug resistance; R-int, intermediate-level drug resistance; R-low, low-level drug resistance; S, drug sensitivity; conditions: cited from earlier work
# [2] = tested on: HCMV UL97-H411Y; design: method as in PMID 31940472; key: R-high, high-level drug resistance; R-int, intermediate-level drug resistance; R-low, low-level drug resistance; S, drug sensitivity; conditions: cited from earlier work
# [3] = tested on: HCMV UL97-C592G; design: method as in PMID 31940472; key: R-high, high-level drug resistance; R-int, intermediate-level drug resistance; R-low, low-level drug resistance; S, drug sensitivity; conditions: cited from earlier work
# [4] = tested on: HCMV UL97-H520Q; design: method as in PMID 31940472; key: R-high, high-level drug resistance; R-int, intermediate-level drug resistance; R-low, low-level drug resistance; S, drug sensitivity; conditions: cited from earlier work
# [5] = tested on: HCMV UL97-C480F; test: HCMV reporter-based antiviral assay, drug-resistant mutant; format: cell-based, human cytomegalovirus; conditions: Human betaherpesvirus 5, read-out: Measured EC50 ref. drugs UL97-C480F
# Method: (§1) For the infection experiments, stocks of the following recombinant, reporter protein-expressing viruses (GFP or YFP (i.e., green or yellow fluorescent protein, respectively)) were propagated (in permissive cells), determined in their infectious titers performing the respective reporter assays, stored by aliquots at −80 °C, and used for the assessment of antiviral drug activities: human cytomegalovirus HCMV AD169-GFP (HFFs); murine cytomegalovirus MCMV C3X-GFP (MEFs); guinea pig cytomegalovirus GPCMV v403-GFP (GPEFs); human herpesvirus type 6A HHV-6A U1102-GFP (J-Jhan); herpes simplex virus type 1 HSV-1 166v VP22-GFP (HFFs); varicella zoster virus VZV Oka-GFP (HFFs); Epstein-Barr virus EBV Akata-GFP (Akata-BX1-GFP carrier cells; kindly provided by Lindsey Hutt-Fletcher and Rona Scott, Dept. Microbiol. Immunol., LSUHSC Univ., Shreveport, LA, USA); and Kaposi’s sarcoma-associated herpesvirus KSHV rKSHV.219-GFP/RFP (in iSLK.219 carrier cells).
# (§2) For HCMV AD169-GFP infection, the replication assay was based on a seeding of 225,000 HFFs or 13,500 HFFs in 12 well or 96 well plates, respectively, which were then inoculated with HCMV AD169-GFP [55] at an MOI of 0.25 GFP-FU/mL/7 d for a 90 min period of inoculum–cell adsorption, followed by a medium refreshment including the immediate addition of antiviral compounds. At 7 d p.i., the infected HFFs were either directly fixed with 10% formalin for 20 min at 4 °C (when used for infection in the 96 well format) or lysed and transferred to 96 well plates (when used for infection in the 12 well format) so that the reporter of viral replication could be quantified by GFP fluorometry using a Perkin Elmer Victor X4 Multimode Plate Reader (Perkin Elmer, Waltham, MA, USA).
# (§3) Due to the fact that the HCMV-encoded protein kinase pUL97 represents a functional and structural ortholog of the host CDKs (vCDK/pUL97), the viral mutants of ORF-UL97 were assessed for sensitivity against CDK7 inhibitors.
# [6] = tested on: HCMV UL97-M460I; test: as above; format: cell-based, human cytomegalovirus; conditions: Human betaherpesvirus 5, AD169, read-out: Measured EC50 ref. drugs UL97-M460I
# Method: as §1, §2, §3
# [7] = tested on: HCMV UL97-H469V; test: as above; format: cell-based, human cytomegalovirus; conditions: Human betaherpesvirus 5, read-out: Measured EC50 ref. drugs UL97-H469V
# Method: as §1, §2, §3
# [8] = tested on: HCMV UL97-F342S; test: as above; format: cell-based, human cytomegalovirus; conditions: Human betaherpesvirus 5, read-out: Measured EC50 ref. drugs UL97-F342S
# Method: as §1, §2, §3
# [9] = tested on: HCMV UL97-H520Q; test: as above; format: cell-based, human cytomegalovirus; conditions: Human betaherpesvirus 5, read-out: Measured EC50 ref. drugs UL97-H520Q
# Method: as §1, §2, §3
# [10] = tested on: HCMV UL97-L397R; test: as above; format: cell-based, human cytomegalovirus; conditions: Human betaherpesvirus 5, read-out: Measured EC50 ref. drugs UL97-L397R
# Method: as §1, §2, §3
# [11] = tested on: HCMV UL97-C592G; test: as above; format: cell-based, human cytomegalovirus; conditions: Human betaherpesvirus 5, read-out: Measured EC50 ref. drugs UL97-C592G
# Method: as §1, §2, §3
# [12] = tested on: HCMV UL97-H411Y; test: as above; format: cell-based, human cytomegalovirus; conditions: Human betaherpesvirus 5, read-out: Measured EC50 ref. drugs UL97-H411Y
# Method: as §1, §2, §3
# [13] = tested on: HCMV UL97-C603W; test: as above; format: cell-based, human cytomegalovirus; conditions: Human betaherpesvirus 5, read-out: Measured EC50 ref. drugs UL97-C603W
# Method: as §1, §2, §3
# [14] = tested on: HCMV UL97-T409M; test: as above; format: cell-based, human cytomegalovirus; conditions: Human betaherpesvirus 5, read-out: Measured EC50 ref. drugs UL97-T409M
# Method: as §1, §2, §3
# [15] = tested on: HCMV UL97-T409M; design: method as in PMID 31940472; key: R-high, high-level drug resistance; R-int, intermediate-level drug resistance; R-low, low-level drug resistance; S, drug sensitivity; conditions: cited from earlier work
# [16] = tested on: HCMV UL97-F342S; design: method as in PMID 31940472; key: R-high, high-level drug resistance; R-int, intermediate-level drug resistance; R-low, low-level drug resistance; S, drug sensitivity; conditions: (for F342Y); cited from earlier work
# [17] = tested on: HCMV UL97-C603W; design: method as in PMID 31940472; key: R-high, high-level drug resistance; R-int, intermediate-level drug resistance; R-low, low-level drug resistance; S, drug sensitivity; conditions: cited from earlier work
# [18] = tested on: HCMV UL97-C480F; design: method as in PMID 31940472; key: R-high, high-level drug resistance; R-int, intermediate-level drug resistance; R-low, low-level drug resistance; S, drug sensitivity; conditions: cited from earlier work
# [19] = tested on: HCMV-encoded vCDK/pUL97; design: method as in PMID 37591314; conditions: cited from earlier work
# [20] = in vivo
# Method: Later, this drug served as the parental compound for the generation of novel covalently binding CDK7-directed warheads (Figure 2A, panels a–h). To reveal LDC4297, a chemical library was designed in silico for the targeting of kinases and was applied for screening against human CDK7–cyclin H–MAT1 by the use of in vitro kinase assays. […] In particular, a kinome-wide analysis with 333 individual kinases was performed to assess compound selectivity in vitro.
# (A) Chemical linkage of an acceptor for the Michael 1,4 addition reaction was performed to generate QRS compounds 6, 7, and 9. Through the covalent binding of host target CDK7, a block of virus-supportive functions was achieved, and further details on this antiviral strategy were described elsewhere (a,b; c,d, this study, and Yu et al., in preparation; d–f; f–h). (B) Determination of in vitro eADME parameters (early […]-distribution-metabilism-excretion) and pharmacokinetics (PK) parameters, including mean plasma concentrations in vivo (male CD-1® mice).
# [21] = format: in vitro ADME
# [22] = tested on: HCMV AD169-GFP; design: method as in PMID 25624324; conditions: read-out: antiviral EC50 value (HCMV); cited from earlier work
# [23] = tested on: human CDK7–cyclin H–MAT1; design: method as in PMID 25624324; conditions: cited from earlier work
# [24] = format: in vitro ADME; remark: listed apart in the source
# [25] = Solubility (SolRank); format: physicochemical; conditions: pH 7.4
# [26] = Caco-2 permeability assay; format: in vitro ADME; conditions: human
# [27] = Plasma protein binding, mouse; format: in vitro ADME; conditions: read-out: Plasma protein binding (% bound) mouse (converted)
# [28] = PAMPA; format: in vitro ADME; conditions: pH 7.4
# [29] = Plasma protein binding, human; format: in vitro ADME; conditions: read-out: Plasma protein binding (% bound) human (converted)
# [30] = biological target: T1, CDK7–cyclin H–MAT1 (Homo sapiens, UniProt P50613); design: method as in PMID 25624324; conditions: kinome-wide panel of 333 kinases; cited from earlier work
# T1 construct: purchased Invitrogen PR6749B
# [31] = male, CD-1, mouse, in vivo, po, 100 mg/kg
# T1 sequence (P50613 whole entry): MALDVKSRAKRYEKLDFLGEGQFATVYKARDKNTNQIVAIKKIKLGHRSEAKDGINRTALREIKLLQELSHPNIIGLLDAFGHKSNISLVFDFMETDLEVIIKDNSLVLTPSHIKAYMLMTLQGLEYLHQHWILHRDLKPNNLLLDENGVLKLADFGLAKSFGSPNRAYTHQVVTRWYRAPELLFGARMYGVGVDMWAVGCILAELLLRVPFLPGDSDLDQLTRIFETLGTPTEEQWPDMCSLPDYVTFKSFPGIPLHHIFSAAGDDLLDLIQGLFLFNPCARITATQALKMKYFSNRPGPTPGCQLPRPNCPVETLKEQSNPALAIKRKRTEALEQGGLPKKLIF
# T1 sequence (P51946 whole entry partner): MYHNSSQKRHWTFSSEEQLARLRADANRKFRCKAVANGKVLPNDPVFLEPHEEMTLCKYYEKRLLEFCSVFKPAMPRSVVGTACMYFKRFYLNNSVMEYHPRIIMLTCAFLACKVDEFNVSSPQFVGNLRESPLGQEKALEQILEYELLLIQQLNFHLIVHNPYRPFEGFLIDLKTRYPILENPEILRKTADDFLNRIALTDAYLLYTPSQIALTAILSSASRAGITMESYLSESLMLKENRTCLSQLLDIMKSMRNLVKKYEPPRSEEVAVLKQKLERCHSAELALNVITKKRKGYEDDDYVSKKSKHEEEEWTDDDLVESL
# T1 sequence (P51948 whole entry partner): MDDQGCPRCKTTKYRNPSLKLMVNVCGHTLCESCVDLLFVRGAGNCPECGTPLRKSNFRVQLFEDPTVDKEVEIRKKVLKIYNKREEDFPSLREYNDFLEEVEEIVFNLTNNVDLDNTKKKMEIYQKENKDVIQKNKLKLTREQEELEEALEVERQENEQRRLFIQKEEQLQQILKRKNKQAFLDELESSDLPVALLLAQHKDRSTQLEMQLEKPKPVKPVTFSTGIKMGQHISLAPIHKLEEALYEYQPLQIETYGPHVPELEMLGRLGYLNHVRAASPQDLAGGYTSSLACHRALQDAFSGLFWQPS
smiles,measurement,setting,value
"CC(C)Nc1nc2cc(Cl)c(Cl)cc2n1[C@H]1O[C@@H](CO)[C@H](O)[C@@H]1O [MBV, maribavir]",Reported phenotype UL97-M460I,[1],R-low
same,Reported phenotype UL97-H411Y,[2],R-high
same,Reported phenotype UL97-C592G,[3],S
same,Reported phenotype UL97-H520Q,[4],S
same,EC50,[5],> 30000 nM
same,EC50,[6],10 nM
same,EC50,[7],620 nM
same,EC50,[8],20300 nM
same,EC50,[9],40 nM
same,EC50,[10],63900 nM
same,EC50,[11],770 nM
same,EC50,[12],21000 nM
same,EC50,[13],1530 nM
same,EC50,[14],> 30000 nM
same,Reported phenotype UL97-T409M,[15],R-high
same,Reported phenotype UL97-F342S,[16],R-int
same,Reported phenotype UL97-C603W,[17],R-int
same,Reported phenotype UL97-C480F,[18],R-high
CC(C)c1cnn2c(NCc3ccccc3-n3cccn3)nc(OC3CCCNC3)nc12 (centres unmarked) [LDC4297],secondary targeting activity against vCDK/pUL97,[19],lack of a secondary targeting activity
same,AUC(0-inf),[20]; [31],3620 ng·h/mL
same,AUC(0-t),[20]; [31],3520 ng·h/mL
same,Cmax,[20]; [31],1300 ng/mL
same,Tmax,[20]; [31],0.5 h
same,bioavailability,[20]; [31],97.7%
same,half-life,[20]; [31],1.6 h
same,tz,[20]; [31],8 h
same,concentration at 8 h,"[20]; male, CD-1, mouse, in vivo, po, 100 mg/kg, Cz, mouse 100 mg/kg p.o.",43.2 ng/mL
same,concentration at 0 min,"[20]; male, CD-1, mouse, in vivo, po, 100 mg/kg, Mean plasma concentration, mouse 100 mg/kg p.o., sampling time 0 min",0 ng/mL
same,concentration at 30 min,"[20]; male, CD-1, mouse, in vivo, po, 100 mg/kg, Mean plasma concentration, mouse 100 mg/kg p.o., sampling time 30 min",> 1200 ng/mL
same,concentration at 90 min,"[20]; male, CD-1, mouse, in vivo, po, 100 mg/kg, Mean plasma concentration, mouse 100 mg/kg p.o., sampling time 90 min",713 ± 411 ng/mL
same,concentration at 240 min,"[20]; male, CD-1, mouse, in vivo, po, 100 mg/kg, Mean plasma concentration, mouse 100 mg/kg p.o., sampling time 240 min",373 ± 108 ng/mL
same,concentration at 480 min,"[20]; male, CD-1, mouse, in vivo, po, 100 mg/kg, Mean plasma concentration, mouse 100 mg/kg p.o., sampling time 480 min",43.2 ± 44 ng/mL
same,Mean plasma concentration,"[20]; mouse 100 mg/kg p.o., sampling time 30 min",1297.6 ± 678.0 ng/mL
same,Plasma stability (% remain) mouse,[21],100.0 % remain
same,EC50,[22],24.5 ± 1.3 nM
same,IC50,[23],< 5 nM
same,Plasma stability (% remain) human,[24],91.6 % remain
same,solubility,[25],373 µM
same,Papp A→B,[26]; A→B,15.4 ×10⁻⁶ cm/s
same,efflux ratio,"[26]; efflux ratio, read-out: Caco-2 permeability B→A / A→B",1.57
same,fraction unbound,[27],0.0951
same,PAMPA (% Flux),[28],76.25 % Flux
same,fraction unbound,[29],0.142
same,residual activity in the presence of LDC4297,[30],2%
